Reference: US11639364B2, “Potent sialyltransferase inhibitors” (STICHTING RADBOUD UNIVERSITEIT, priority 2018, dated 2023)
Like-named read-outs stand apart in the source and are kept apart here.

Legend:
B16-F10 cells [1] = assay: Inhibition of cell surface sialylation, lectin staining and flow cytometry, B16-F10 cells; format: cell-based, Mouse; conditions: three days
Description: (§1) Mouse B16-F10 melanoma cells (ATCC CRL-6475) were cultured in Minimum Essential Medium (MEM) (Gibco, Invitrogen, Carlsbad, Calif.) containing 5% fetal bovine serum (FBS) (Greiner Bio-one, Frickenhausen, Germany), 1% MEM non-essential amino acids (Gibco), 0.15% sodium bicarbonate (Gibco), 1 mM sodium pyruvate (Gibco), 1.5% MEM vitamins (Gibco), 1% antibiotic-antimycotic solution (50 U/ml penicillin, 50 μg/ml streptomycin and 125 ng/ml amphotericin B) (Gibco). The murine 9464D neuroblastoma cell line was cultured in Dulbecco's Modified Eagle's Medium (DMEM, Glutamax, Gibco) with 10% FBS, 1% non-essential amino acids, 50 μM 2-mercaptoethanol (Sigma-Aldrich) and 1% antibiotic-antimycotic solution (Kroesen et al., 2014, DOI: 10.1002/ijc.28463, Stauffer et al., 2012, DOI: 10.3109/07357907.2012.664670). The murine EL4 T lymphocyte cell line (ATCC TIB-39) was cultured in Iscove's Modified Dulbecco's Medium (IMDM, Gibco) supplemented with 5% FBS and 1% antibiotic-antimycotic solution. Human HEK293 (ATCC CRL-1573) kidney cells and human HeLa (ATCC CCL-2) cervical cancer cells were cultured in DMEM containing 10% FBS, 2 mM glutamine (Lonza, Walkersville, Md.) and 1% antibiotic-antimycotic solution. Human monocytic THP-1 cells (TIB-202, ATCC) were cultured in RRMI-1640 medium (Gibco) supplemented with 10% FBS, 2 mM glutamine and 1% antibiotic-antimycotic solution. All cell lines were cultured in a humidified 5% CO2 incubator at 37° C.
(§2) To assess the effect of the synthesized compounds on cell surface sialylation, different murine and human cell lines were cultured for three days in the presence of 0-204.8 μM amide and carbamate fluorine sialic acids. Cells treated with an equal final percentage of DMSO were used as control and all cells were subjected to lectin staining and flow cytometry as described below. To investigate the longevity of the effect of the fluorine sialic acids on cell surface sialylation, B16-F10 cells treated with 25.6 μM or 51.2 μM were thoroughly washed with medium to remove fluorine sialic acids from the culture and reseeded. During a period of six days, cells were harvested every day and sialylation was assessed by flow cytometry.
(§3) For the lectin staining, all cells were harvested and washed with 1× carbo-free blocking solution (Vector Laboratories, Inc., Burlingame, Calif., USA) and stained for 45 minutes at 4° C. in 1× carbo-free blocking solution containing 1 mM CaCl2), 1 mM MgCl2 and biotinylated MALII (5 μg/ml), SNA-1 (1 μg/ml) or PNA (5 μg/ml) all obtained from Vector Laboratories Inc. MALII recognizes α2,3-linked sialic acids, SNA-1 recognizes α2,6-linked sialic acids and PNA binds to terminal 3-galactose. In addition, B16-F10 cells were stained with 2 μg/ml biotinylated AAL (α-linked Fucose), LCA (α-linked Mannose), PHA-L (complex glycans), GSL-I (α-linked Galactose and N-Acetylgalactosamine), WGA (chitobiose), SJA (β-linked Galactose and N-Acetylgalactosamine) and PSA (Glucose and Mannose) purchased from Vector Laboratories Inc. Next, the cells were washed thrice in PBA (1×PBS, 1% BSA, and 0.02% sodium azide) and stained for 10 minutes at 4° C. with 2 μg/ml streptavidin-phycoerythrin (PE) (BD Pharmingen, Franklin Lakes, N.J., USA). The cells were washed thrice again with PBA and fluorescence was assessed using a CyAn ADP flow cytometer (BD Biosciences, San Jose, Calif.) followed by analysis with FlowJo software (Tree Star Inc., Ashland, Oreg.). Untreated cells stained with streptavidin-PE only served as background fluorescence control. The percentages lectin binding was calculated by normalizing the mean fluorescence intensity values from the treated cells with the DMSO controls.
(§4) IC50 values and statistics were calculated using Prism 5.03 (GraphPad Software, Inc., La Jolla, Calif.). Statistical significance between the different groups was calculated using one-way ANOVA followed by Bonferroni post-hoc testing and P-values<0.05 were considered significant (p<0.05 *, p<0.01 **, p<0.001 ***). […]

THP-1 cells = assay: Inhibition of cell surface sialylation, lectin staining and flow cytometry, THP-1 cells; format: cell-based, Human; conditions: three days
Description: as §1, §2, §3, §4

HEK293 cells = assay: Inhibition of cell surface sialylation, lectin staining and flow cytometry, HEK293 cells; format: cell-based, Human; conditions: three days
Description: as §1, §2, §3, §4

HeLa cells = assay: Inhibition of cell surface sialylation, lectin staining and flow cytometry, HeLa cells; format: cell-based, human; conditions: three days
Description: as §1, §2, §3, §4

9464D cells = assay: Inhibition of cell surface sialylation, lectin staining and flow cytometry, 9464D cells; format: cell-based, murine; conditions: three days
Description: as §1, §2, §3, §4

EL4 cells = assay: Inhibition of cell surface sialylation, lectin staining and flow cytometry, EL4 cells; format: cell-based, murine; conditions: three days
Description: as §1, §2, §3, §4

B16-F10 cells [2] = assay: Inhibition of cell surface sialylation by urea, thiocarbamate and sulphonamide analogues (Example 5); format: cell-based, Mouse; conditions: for IC50: three days, 0.1-204.8 μM
Description: as §1, §3
IC50 values and statistics were calculated using Prism 5.03 (GraphPad Software, Inc., La Jolla, Calif.). Statistical significance between the different groups was calculated using one-way ANOVA followed by Bonferroni post-hoc testing and P-values<0.05 were considered significant (p<0.05 *, p<0.01 **, p<0.001 ***).
Analogous to example 3, the inhibitory potency of thiocarbamate 28, urea 29, and sulphonamides 30 and 31 on the sialic acid biosynthesis was assayed. To this end, B16-F10 cells were fed sialic acid precursors for three day at various concentrations (0.1-204.8 μM). The decrease in cell surface sialylation was measured using biotinylated lectins that are specific for binding α2,3-linked (MALII) or α2,6-linked (SNA-1) sialic acid residues, subsequently visualized using streptavidin-phycoerythrin. Conversely, binding of the underlying galactose residue uncovered by desialylation was measured using a galactose specific lectin (Peanut, Agglutinin Lectin, PNA). No inhibition was observed without a P-3Fax-Neu derivative present (DMSO vehicle control). […]

[3] = MALII lectin binding, read-out: α2,3-Sia IC50
[4] = SNA-I lectin binding, read-out: α2,6-Sia IC50
[5] = Example 5, read-out: α2,6-Sia IC50 (SNA)
[6] = Mus musculus, 72 h, MALII lectin binding, read-out: α2,3-Sia IC50
[7] = Mus musculus, 72 h, SNA-I lectin binding, read-out: α2,6-Sia IC50
[8] = Homo sapiens, 72 h, MALII lectin binding, read-out: α2,3-Sia IC50
[9] = Homo sapiens, 72 h, SNA-I lectin binding, read-out: α2,6-Sia IC50
[10] = Example 5, read-out: α2,3-Sia IC50 (MAL)

COC(=O)C1(OC(C)=O)O[C@@H]([C@H](OC(C)=O)[C@@H](COC(C)=O)OC(C)=O)[C@H](NC(C)=O)[C@@H](OC(C)=O)[C@H]1F (stereo partly drawn) [SiaFAc, Methyl 5-(acetamido)-2,4,7,8,9-penta-O-acetyl-3,5-dideoxy-3-fluoro-D-glycero-β-galacto-non-2-ulopyranosonate, reference compound]
IC50 (B16-F10 cells [1]; [3]): 26.8 ± 5.72 µM | IC50 (B16-F10 cells [1]; [4]): 32.8 ± 3.08 µM | IC50 (THP-1 cells; [3]): 8.5 ± 1.54 µM | IC50 (THP-1 cells; [4]): 10.9 ± 2.47 µM | IC50 (HEK293 cells; [3]): 45.2 ± 8.3 µM | IC50 (HEK293 cells; [4]): 36.7 ± 3.59 µM | IC50 (HeLa cells; [3]): 53 ± 3.61 µM | IC50 (HeLa cells; [4]): 34.5 ± 2.18 µM | IC50 (9464D cells; [3]): > 102 µM | IC50 (9464D cells; [4]): > 102 µM | IC50 (EL4 cells; [3]): > 102 µM | IC50 (EL4 cells; [4]): > 102 µM | IC50 (B16-F10 cells [2]; [5]): 20.9 µM

CCOC(=O)N[C@@H]1C(OC(C)=O)C(F)C(OC(C)=O)(C(=O)OC)OC1[C@H](OC(C)=O)[C@@H](COC(C)=O)OC(C)=O (stereo partly drawn) [SiaFEt, Methyl 5-(ethylcarbamado)-2,4,7,8,9-penta-O-acetyl-3,5-dideoxy-3-fluoro-D-glycero-β-galacto-non-2-ulopyranosonate]
IC50 (B16-F10 cells [1]; [6]): 1.78 ± 0.16 µM | IC50 (B16-F10 cells [1]; [7]): 3.87 ± 1.14 µM | IC50 (THP-1 cells; [8]): 0.45 ± 0.74 µM | IC50 (THP-1 cells; [9]): 0.37 µM | IC50 (HEK293 cells; [8]): 2.02 ± 2.72 µM | IC50 (HEK293 cells; [9]): 1.57 ± 4.23 µM | IC50 (HeLa cells; [8]): 2.02 ± 1.52 µM | IC50 (HeLa cells; [9]): 1.67 ± 1.31 µM | IC50 (9464D cells; [6]): 8.91 ± 2.38 µM | IC50 (9464D cells; [7]): 28.1 ± 5.51 µM | IC50 (EL4 cells; [6]): 42 ± 11 µM | IC50 (EL4 cells; [7]): 50.6 ± 8.84 µM | IC50 (B16-F10 cells [2]; Mus musculus, 72 h, Example 5, read-out: α2,3-Sia IC50 (MAL)): 0.929 µM | IC50 (B16-F10 cells [2]; Mus musculus, 72 h, Example 5, read-out: α2,6-Sia IC50 (SNA)): 3.92 µM

C#CCOC(=O)N[C@@H]1C(OC(C)=O)C(F)C(OC(C)=O)(C(=O)OC)OC1[C@H](OC(C)=O)[C@@H](COC(C)=O)OC(C)=O (stereo partly drawn) [SiaFPoc, Methyl 5-(propargylcarbamado)-2,4,7,8,9-penta-O-acetyl-3,5-dideoxy-3-fluoro-D-glycero-β-galacto-non-2-ulopyranosonate]
IC50 (B16-F10 cells [1]; [6]): 0.72 ± 0.2 µM | IC50 (B16-F10 cells [1]; [7]): 2.59 ± 0.07 µM | IC50 (THP-1 cells; [8]): 0.42 ± 0.9 µM | IC50 (THP-1 cells; [9]): 0.44 µM | IC50 (HEK293 cells; [8]): 1.19 ± 1.47 µM | IC50 (HEK293 cells; [9]): 5.42 ± 1.4 µM | IC50 (HeLa cells; [8]): 1.65 ± 2.27 µM | IC50 (HeLa cells; [9]): 1.37 ± 0.81 µM | IC50 (9464D cells; [6]): 10.7 ± 2.85 µM | IC50 (9464D cells; [7]): 40.2 ± 6.56 µM | IC50 (EL4 cells; [6]): 51 ± 8.62 µM | IC50 (EL4 cells; [7]): 51.6 ± 2.62 µM

COC(=O)C1(OC(C)=O)OC([C@H](OC(C)=O)[C@@H](COC(C)=O)OC(C)=O)[C@H](NC(=O)C(F)(F)F)C(OC(C)=O)C1F (stereo partly drawn) [SiaFTFA, Methyl 5-(trifluoroacetamido)-2,4,7,8,9-penta-O-acetyl-3,5-dideoxy-3-fluoro-D-glycero-β-galacto-non-2-ulopyranosonate, reference compound]
IC50 (B16-F10 cells [1]; [6]): 14.3 ± 0.77 µM | IC50 (B16-F10 cells [1]; [7]): 33.3 ± 2.63 µM | IC50 (THP-1 cells; [8]): 3.3 ± 1.26 µM | IC50 (THP-1 cells; [9]): 7.19 ± 3.6 µM | IC50 (HEK293 cells; [8]): 42.8 ± 2.38 µM | IC50 (HEK293 cells; [9]): 41.4 ± 10.4 µM | IC50 (HeLa cells; [8]): 25.5 ± 2.61 µM | IC50 (HeLa cells; [9]): 33.4 ± 4.38 µM | IC50 (9464D cells; [6]): 46.5 ± 4.41 µM | IC50 (9464D cells; [7]): > 102 µM | IC50 (EL4 cells; [6]): > 102 µM | IC50 (EL4 cells; [7]): > 102 µM

COC(=O)C1(OC(C)=O)OC([C@H](OC(C)=O)[C@@H](COC(C)=O)OC(C)=O)[C@H](NC(=O)OCC(C)C)C(OC(C)=O)C1F (stereo partly drawn) [SiaFiBu, Methyl 5-(isobutylcarbamado)-2,4,7,8,9-penta-O-acetyl-3,5-dideoxy-3-fluoro-D-glycero-β-galacto-non-2-ulopyranosonate]
IC50 (B16-F10 cells [1]; [6]): 3.33 ± 0.12 µM | IC50 (B16-F10 cells [1]; [7]): 15.1 ± 3.7 µM | IC50 (THP-1 cells; [8]): 0.5 ± 1.34 µM | IC50 (THP-1 cells; [9]): 0.62 ± 1.77 µM | IC50 (HEK293 cells; [8]): 11.4 ± 4.73 µM | IC50 (HEK293 cells; [9]): 9.61 ± 4.83 µM | IC50 (HeLa cells; [8]): 5.15 ± 2.4 µM | IC50 (HeLa cells; [9]): 4.32 ± 1.82 µM | IC50 (9464D cells; [6]): 24.4 ± 2.95 µM | IC50 (9464D cells; [7]): 36.1 ± 6.4 µM | IC50 (EL4 cells; [6]): 51.8 ± 18.7 µM | IC50 (EL4 cells; [7]): 51.1 ± 8.97 µM

Methyl 5-(S-ethylthiocarbamado)-2,4,7,8,9-penta-O-acetyl-3,5-dideoxy-3-fluoro-D-glycero-β-galacto-non-2-ulopyranosonate [Thiocarbamate 28]
IC50 (B16-F10 cells [2]; [10]): 1.68 µM | IC50 (B16-F10 cells [2]; [5]): 4.83 µM

Methyl 5-(methylsulfonamido)-2,4,7,8,9-penta-O-acetyl-3,5-dideoxy-3-fluoro-D-glycero-β-galacto-non-2-ulopyranosonate [Sulphonamide 30]
inhibition of sialylation compared with the acetate (B16-F10 cells [2]; FIG. 8): outperforming the acetate at various concentrations | IC50 (B16-F10 cells [2]; [10]): 9.9 µM

Methyl 5-N-ethylamidnocarbonyl)-2,4,7,8,9-penta-O-acetyl-3,5-dideoxy-3-fluoro-D-glycero-β-galacto-non-2-ulopyranosonate [Urea 29]
IC50 (B16-F10 cells [2]; [10]): 4.2 µM | IC50 (B16-F10 cells [2]; [5]): 4.89 µM
